SMILES strings stand for the structures. “Also recorded” adds a separate entry of the source.

For one series, the system named is HHSEC. Briefly: Colorimetric (XTT) cell viability assay in HHSEC. In kind it is cell-based, human. As to conditions: for toxicity to HHSEC (ranking): XTT viability, FIG. 33B. The protocol: Cell viability assay was performed with a XTT Viability Kit (Cell Signaling Technology, 9095) according to the manufacturer's instructions. HHSEC were seeded in three black-walled 96-well plates (Corning, 3603) with cell density≥12,000 cells per well.
The cells were incubated for 24 hours at 37° C., 5% CO2 in endothelial growth media (Cell Application Inc, 211-500). After 24 hours, old media was removed and 100 μL of fresh media was added to each well. Drugs were dissolved in DMSO; a 1.1 mM stock solution was made by diluting drug in DPBS (11% DMSO, v/v). The 1.1 mM stock was serially diluted with 3-fold dilutions. DMSO volumes were balanced to 11% DMSO (v/v). A multichannel pipette was used to add 10 μL of drug or control stocks simultaneously (i.e., one column per drug per plate). The final maximum concentration of drug was 100 μM. Plates were incubated for 21 hours at 37° C., 5% CO2. After incubation, 50 μL of XTT solution were added to each well and incubated for three hours to maximize differences in signal. Absorbance was measured at 462 and 620 nm with a spectrophotometer (Molecular Devices, Spectramax Plus 384). Background absorbance at 620 nm was subtracted from maximum peak at 462 nm.
(Tetrazolium assays rely on reduction of a dye to a coloured formazan, in cell work by metabolically active cells.)

In series [1] the test system is CXCL1 and CCL2 mRNA expression. Briefly: Murine LPS model of mild liver inflammation, qPCR of CXCL1 and CCL2 mRNA. In kind it is in vivo. As to conditions: mice, drug given one hour before LPS; for CCL2 mRNA expression versus LPS control: several doses. The protocol: BRD4 inhibitors were introduced to murine models of mild liver inflammation induced by LPS. The BRD4 inhibitors acted as prophylactic agents to prevent the increased expression of CXCL1 and CCL2. […] RNA extraction was performed with RNeasy kit (Qiagen 74104) from cells and mouse tissue according to the manufacturer's instructions. RNA Quantification was performed with spectrophotometry (NanoDrop, Thermo Scientific). 500 ng of mRNA was used for cDNA synthesis with dNTP and oligo primer using SuperScript™ III (Invitrogen 18080-093) for reverse transcription per the manufacturer's protocol. Real-Time PCR was performed from cDNA using IQ SYBR Green Mix (Biorad 1725121) on the 7500 Real-Time PCR system (Applied Biosystems), according to the manufacturer's instructions. Amplification of GAPDH and B-actin was performed for respective samples as internal controls. Each experiment was done in duplicates.
(In qPCR the cycle at which signal appears reflects the starting amount.)

Series [2] relates to alcohol/LPS-induced liver inflammation. Put plainly: Multiple alcohol binge with LPS mouse model. It is filed as in vivo, mice. The conditions noted are these: UMN627 22 mg/kg IP. The protocol:
mRNA levels were quantified by real-time reverse transcription PCR. RNA extraction was performed with RNeasy kit (Qiagen 74104) from cells and mouse tissue according to the manufacturer's instructions. RNA Quantification was performed with spectrophotometry (NanoDrop, Thermo Scientific). 500 ng of mRNA was used for cDNA synthesis with dNTP and oligo primer using SuperScript™ III (Invitrogen 18080-093) for reverse transcription per the manufacturer's protocol. Real-Time PCR was performed from cDNA using IQ SYBR Green Mix (Biorad 1725121) on the 7500 Real-Time PCR system (Applied Biosystems), according to the manufacturer's instructions. Amplification of GAPDH and B-actin was performed for respective samples as internal controls. Each experiment was done in duplicates.
Right lobes of all mouse livers were fixed in 10% formalin and embedded in paraffin and cut into 5 μm sections. Slides were deparaffinized and underwent antigen retrieval (IHC-Tek IW-1000). Slides were treated with hydrogen peroxide for 10 minutes before blocking in 5% bovine serum albumin in phosphate-buffered saline (PBS) for 1 hour at room temperature. Samples were then incubated overnight at 4° C. with rabbit anti-MPO antibody (Abcam ab9535) at 1:25. Slides were then blocked with Avidin and Biotin (Vector SP-2001) for 15 minutes each before treatment with biotinylated secondary antibody horse anti-Rabbit (Vector BA-1100) at 1:200 for 1 hour at room temperature. Slides were then treated with
ABC reagent (Vector PK-7100) for 30 minutes before treatment with DAB reagent (Vector SK-4100) for 5 minutes. Counterstain was performed with hematoxylin stain and dehydrated in ethanol and xylene. Images were acquired using a Zeiss LSM 780 confocal microscope at 10× magnification, 5 images per slide (Carl Zeiss MicroImaging, Jena, Germany).
Liver sections from the left lobe of all mouse livers were embedded in OCT (Sakura 4583) and flash frozen. Frozen tissue was sectioned into 10 μm slices, fixed in 10% formalin and stained with BODIPY 493/503 (Invitrogen D3922) or Oil-red (Sigma 00625) and counterstained with 4′,6-diamidino-2-phenylindole (DAPI) (Sigma D9542) or hematoxylin, respectively. Representative images were obtained with microscopy in one session under same settings (Carl Zeiss MicroImaging, Jena, Germany), 3 images per slide. The proportion of tissue stained with BODIPY, or Oil-red content was quantified with ImageJ macro commands for standardization. For BODIPY staining, FITC channel intensity was measured across the whole image, and average intensities of images were normalized to the average of all control samples. For Oil Red staining, red staining was quantified above a pre-selected threshold, and average intensities of images were normalized to the average of all control samples. […]

Series [3] has as its system CXCL chemokine expression in LSECs. Put plainly: CXCL chemokine expression by qPCR in LSECs with or without TNFα stimulation. It is filed as cell-based, human. The conditions noted are these: LSECs pretreated with inhibitor. The protocol: LSECs were thawed and cultured according to standard cell culture conditions and according to manufacture instruction (ScienCell). Briefly, LSECs are plated at low confluency and cultured in Endothelial cell medium (Cell 211-500). Fresh medium changed every other day and cells are split when close to confluency. For TNFα stimulation experiments, low passage cells were plated at 70% confluency and cultured overnight. Serum starvation was performed by changing cells to low-serum medium (0.5% FBS in basal endothelial medium (Lonza CC-3121)) for 2 hours. Human TNFα at concentration 10 ng/mL was added to low-serum medium and incubated with cells for 90 minutes before cells were collected and assayed for downstream analysis. […] Inhibitors were added at concentrations indicated to low-serum medium, and cells were incubated in inhibitor containing medium for 2 hours. After inhibitor treatment, medium change was performed with TNFα (Peprotech 300-01A) at 10 ng/ml or control low-serum medium for 90 minutes incubation. LSECs were then collected for analysis.
mRNA levels were quantified by real-time reverse transcription PCR. RNA extraction was performed with RNeasy kit (Qiagen 74104) from cells and mouse tissue according to the manufacturer's instructions. RNA Quantification was performed with spectrophotometry (NanoDrop, Thermo Scientific). […]

A further series has as its target BRD4 BD1 (Homo sapiens, UniProt O60885). Briefly: BRD4 BD1 affinity (IC50). In kind it is binding. As to conditions: ratio of BD2 and BD1 IC50.
The mark [4] stands for this setting: among treatment groups, 22 mg/kg.

On to `CCc1cc(C)cc(Oc2nccc(-c3c(-c4ccc(C(F)(F)F)cc4)ncn3C3CCN(CCN(C)C)CC3)n2)c1` [9-73], for which the “toxicity to HHSEC (ranking)” value with HHSEC is reported as “least toxic”.

With `Cc1cc(C)cc(Nc2nccc(-c3c(-c4ccc(C(F)(F)F)cc4)ncn3C3CCN(CCCN(C)CCNC(=O)CN4CCC(n5nnc(C)c5-c5cccc(Oc6cc(C)cc(C)c6)n5)CC4)CC3)n2)c1` [9-169], the EC50 in the series with HHSEC (Homo sapiens, read-out: EC50, concentration that causes 50% toxicity to HHSEC, XTT, 21 + 3 hours incubation) is below 4 µM.

Take `CCc1cc(C)cc(Oc2nccc(-c3c(-c4ccc(C(F)(F)F)cc4)ncn3[C@H]3CCN(CCN(C)C)C3)n2)c1` [9-209]: the “toxicity to HHSEC (ranking)” value with HHSEC is given as “least toxic”.

Regarding `Cc1cc(C)cc(Oc2cccc(-c3c(C)nnn3C3CCNCC3)n2)c1` [AC4118], in the series with HHSEC, the “toxicity to HHSEC (ranking)” value is reported as “least toxic”. Also, in series [1], the “IC50 for chemokine expression (chemokine not specified)” value is listed as below 5 mg/kg and the “CCL2 mRNA expression versus LPS control” value is “significantly reduced CCL2 expression at higher concentrations compared to UMN627”.

Consider `Cc1nnn(C2CCN(CCN(C)C)CC2)c1-c1cccc(Oc2cc(Br)ccc2Br)n1` [AC6026], for which the “toxicity to HHSEC (ranking)” value in the series with HHSEC is on record as “least toxic”.

For `Cc1cc(C)cc(Oc2cccc(-c3c(C)nnn3C3CCN(CCN(C)C)CC3)n2)c1` [AC6027], the “toxicity to HHSEC (ranking)” value in the series with HHSEC is on record as “least toxic”.

For `Cc1cc(C)cc(Nc2nccc(-c3c(-c4ccc(C(F)(F)F)cc4)ncn3C3CCN(CCN)CC3)n2)c1` [UMN627], in series [2] (alcohol binges/LPS mice), the “liver neutrophil infiltration (MPO IHC)” value was “Attenuated”. Moreover, the “liver CXCL chemokine (and Ly6g) expression by qPCR” value in series [2] (alcohol binges/LPS mice, 22 mg/kg) is “attenuated”. In addition, in series [2] (setting [4]), the “serum ALT levels” value was “no significant changes; also recorded: did not show statistical difference” and the “steatosis (BODIPY 493/503 staining)” value is given as “no significant changes; also recorded: not significantly correlated”. For the same compound, in series [3], the “CXCL chemokine expression in LSECs” value is on record as “showed efficacy in CXCL suppression”. Also, in series [1], the “IC50 for CCL2 mRNA expression” value came out at 8.8 mg/kg, the “IC50 for CXCL1 mRNA expression” value stood at 10.9 mg/kg and the “CCL2 mRNA expression versus LPS control” value was “No significant differences were found”. Moreover, the “affinity for BRD4 BD1 over BRD4 BD2” value at BRD4 BD1 was “over 20 fold”.

Values taken from patent US20250114355A1, “TREATING LIVER DISEASE” (Mayo Foundation for Medical Education and Research, priority 2021, published 2025).
